pIC50: −log10 of the molar value. Like-named read-outs stand apart in the source and are kept apart here.
Legend:
[1] = target: T1, human SOAT1 (Homo sapiens, UniProt P35610); assay: SOAT1 activity in SOAT1-CHO cells ([14C]CE formation from [1-14C]oleic acid); type: cell-based; settings: for pIC50: n ≧ 3
T1 construct: expressed in transfected cells; host or cells: CHO AC29 (SOAT-deficient) cells
T1 sequence (P35610 1-550): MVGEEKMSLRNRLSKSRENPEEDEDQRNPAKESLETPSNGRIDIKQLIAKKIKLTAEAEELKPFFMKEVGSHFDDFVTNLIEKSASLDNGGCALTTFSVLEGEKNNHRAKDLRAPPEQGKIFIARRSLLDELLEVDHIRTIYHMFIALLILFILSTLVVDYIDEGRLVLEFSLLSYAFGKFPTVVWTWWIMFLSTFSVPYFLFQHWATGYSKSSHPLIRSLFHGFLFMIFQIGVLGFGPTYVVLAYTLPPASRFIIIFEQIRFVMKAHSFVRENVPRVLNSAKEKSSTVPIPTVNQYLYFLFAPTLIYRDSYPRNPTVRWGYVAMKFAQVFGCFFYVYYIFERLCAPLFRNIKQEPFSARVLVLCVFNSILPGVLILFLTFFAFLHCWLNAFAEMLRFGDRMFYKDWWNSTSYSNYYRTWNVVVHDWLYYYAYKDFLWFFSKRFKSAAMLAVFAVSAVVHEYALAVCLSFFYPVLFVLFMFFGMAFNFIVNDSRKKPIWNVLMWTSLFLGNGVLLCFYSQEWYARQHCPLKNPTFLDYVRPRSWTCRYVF
Description: (§1) CHO cells (AC29 cells, SOAT-deficient cells) expressing the SOAT1 or SOAT2 genes from human were cultured using a previously described method [17].
(§2) Assays for human SOAT1 and SOAT2 activities using SOAT1- and SOAT2-CHO cells were performed using our established method [11, 17]. […] At least 80% confluent cells were used for assays. […] After a 6-h incubation at 37 °C in 5% CO2, medium was removed, and the cells in each well were washed twice with PBS. Cells were lysed by adding 0.25 mL of 10 mM Tris-HCl (pH 7.5) containing 0.1% (w/v) sodium dodecyl sulfate, and [^14C]CE was analyzed using a FLA-7000 analyzer (Fuji Film). In this cell-based assay, [^14C]CE was produced by the reaction of SOAT1 or SOAT2. SOAT inhibitory activity (%) is defined as ([1-^14C]CE-drug/[^14C]CE-control) × 100.

[2] = target: T2, human SOAT2 (Homo sapiens, UniProt O75908); assay: SOAT2 activity in SOAT2-CHO cells ([14C]CE formation from [1-14C]oleic acid); type: cell-based; settings: for pIC50: n ≧ 3
T2 construct: expressed in transfected cells; host or cells: CHO AC29 (SOAT-deficient) cells
T2 sequence (O75908 1-522): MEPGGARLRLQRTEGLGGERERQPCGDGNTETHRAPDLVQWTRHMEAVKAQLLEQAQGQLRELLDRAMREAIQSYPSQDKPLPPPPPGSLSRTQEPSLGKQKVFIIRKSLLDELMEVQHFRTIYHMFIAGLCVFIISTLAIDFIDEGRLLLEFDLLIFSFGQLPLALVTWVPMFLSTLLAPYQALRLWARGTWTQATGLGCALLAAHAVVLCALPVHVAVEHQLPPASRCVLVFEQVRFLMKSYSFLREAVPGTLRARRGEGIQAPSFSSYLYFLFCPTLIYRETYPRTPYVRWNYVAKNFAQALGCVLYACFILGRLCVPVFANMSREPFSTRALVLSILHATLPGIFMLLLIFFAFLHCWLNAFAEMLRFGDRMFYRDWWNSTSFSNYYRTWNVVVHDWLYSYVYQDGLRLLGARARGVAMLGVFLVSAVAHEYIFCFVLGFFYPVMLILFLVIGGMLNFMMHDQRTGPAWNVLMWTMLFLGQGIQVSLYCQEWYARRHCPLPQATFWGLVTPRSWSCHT
Description: as §1, §2

[3] = tested on: human SOAT2; assay: as above; type: cell-based; settings: classified by SI
Description: as §1, §2

[4] = tested on: human SOAT2; design: method as in PMID 32467602; settings: classified by SI; cited from earlier work
[5] = target: T2, human SOAT2; design: method as in PMID 32467602; settings: SOAT2-CHO cells; cited from earlier work
[6] = tested on: African green monkey SOAT1; design: method as in PMID 16629409; settings: African green monkey SOAT1-CHO cells; cited from earlier work
[7] = tested on: African green monkey SOAT2; design: method as in PMID 16629409; settings: cited from earlier work
[8] = tested on: SOAT2; design: method as in PMID 17390588; settings: cited from earlier work
[9] = IC50 SOAT1, human SOAT1-CHO cells
[10] = IC50 SOAT2, human SOAT2-CHO cells
[11] = SAR comparison: 4 vs 6 (R5), 8 vs 11 (R6)

Molecule	pIC50 [1, 9]	pIC50 [2, 10]	Type of inhibitors [3]	further results
CC(C)=CC1OC2C(OC3CCC4(C)C(C)(O)C(CC5(O)C(=O)Nc6cccc(CC7OC7(C)C)c65)CCC4(O)C34OC24)C(C)(C)O1 (stereo not shown) [Compound 1, Terpendole N]				pIC50 ([1]; read-out: IC50 SOAT1, human SOAT1-CHO cells): < 4.85; pIC50 ([2]; read-out: IC50 SOAT2, human SOAT2-CHO cells): < 4.85
CC(C)=C[C@H]1O[C@H]2[C@H]3O[C@@]34[C@H](CC[C@@]3(C)[C@@]4(O)CC[C@H]4Cc5c([nH]c6cccc(CC7OC7(C)C)c56)[C@@]43C)O[C@@H]2C(C)(C)O1 (stereo partly shown) [Compound 2, terpendole O]	5.55	5.62	dual (Dual with -1.0 < SI < +1.0)	
CC(C)=CCOC(C)(C)[C@H]1O[C@H]2CC[C@@]3(C)[C@]4(O[C@H]4C[C@H]4Cc5c([nH]c6ccccc56)[C@@]43C)[C@]23O[C@@H]3[C@@H]1O [Compound 3, terpendole P]	5.23	5.16	dual (Dual with -1.0 < SI < +1.0)	
CC(C)=C[C@H]1O[C@H]2[C@H]3O[C@@]34[C@H](CC[C@@]3(C)[C@@]4(O)CC[C@H]4C[C@@]5(O)c6c(CC7OC7(C)C)cccc6N[C@@]5(O)[C@@]43C)O[C@@H]2C(C)(C)O1 (stereo partly shown) [Compound 4, voluhemin A]				Type of inhibitors [4]: dual (Dual with -1.0 < SI < +1.0); enhancement of SOAT1 inhibitory activity relative to comparison compound [1, 11]: approximately 10 fold; enhancement of SOAT2 inhibitory activity relative to comparison compound [2, 11]: approximately 10 fold
CC(C)=C[C@H]1O[C@H]2[C@H]3O[C@@]34[C@@H](O[C@@H]2C(C)(C)O1)[C@H](O)C[C@@]1(C)[C@@]4(O)CC[C@H]2C[C@@]3(O)c4c(CC5OC5(C)C)cccc4N[C@@]3(O)[C@@]21C (stereo partly shown) [Compound 6, NK12838]				pIC50 [5]: 5.46; Type of inhibitors [4]: dual (Dual with -1.0 < SI < +1.0)
CC(C)=C[C@H]1O[C@H]2[C@H]3O[C@@]34[C@H](CC[C@@]3(C)[C@@]4(O)CC[C@H]4Cc5c([nH]c6ccccc56)[C@@]43C)O[C@@H]2C(C)(C)O1 [Compound 7, terpendole C]	5.70	5.66	dual (Dual with -1.0 < SI < +1.0)	
CC(C)=CCOC(C)(C)[C@H]1O[C@H]2CC[C@@]3(C)[C@@H](CC[C@H]4Cc5c([nH]c6ccccc56)[C@@]43C)[C@]23O[C@@H]3[C@@H]1O [Compound 8, terpendole D]	6.10	5.68	dual (Dual with -1.0 < SI < +1.0)	
CC(C)=CCc1cccc2[nH]c3c(c12)C[C@@H]1CC[C@@]2(O)[C@@]45O[C@@H]4[C@@H]4O[C@H](C=C(C)C)OC(C)(C)[C@H]4O[C@H]5CC[C@]2(C)[C@@]31C [Compound 9, terpendole L]	5.17	5.74	dual (Dual with -1.0 < SI < +1.0)	
CC(C)=CCc1cccc2[nH]c3c(c12)C[C@@H]1CC[C@@]2(O)[C@@]45O[C@@H]4[C@H](O)[C@@H](C(C)(C)O)O[C@H]5CC[C@]2(C)[C@@]31C [Compound 10, tolypocladin A]				pIC50 ([1]; human SOAT1-CHO cells, read-out: IC50 SOAT1): < 4.74; pIC50 ([2]; human SOAT2-CHO cells, read-out: IC50 SOAT2): < 4.74
CC(C)=CCOC(C)(C)[C@H]1O[C@H]2CC[C@@]3(C)[C@@](O)(CC[C@H]4Cc5c([nH]c6ccccc56)[C@@]43C)[C@]23O[C@@H]3[C@@H]1O [Compound 11, terpendole J]	4.73	4.97	dual (Dual with -1.0 < SI < +1.0)	
CC(C)=CCc1c([C@H](O)C2OC2(C)C)ccc2[nH]c3c(c12)C[C@@H]1CC[C@@]2(O)C(C)(C)C(=O)CC[C@]2(C)[C@@]31C (stereo partly shown) [Compound 12, sespendole]				pIC50 [6]: 4.92; pIC50 ([7]; African green monkey SOAT2-CHO cells): 5.19; Type of inhibitors ([7]; classified by SI, African green monkey SOAT1 and SOAT2-CHO cells): dual (Dual with -1.0 < SI < +1.0)
pyripyropene A				SOAT isozyme selectivity [8]: highly selective SOAT2 inhibitor

Source: paper PMC7411735, “New Terpendole Congeners, Inhibitors of Sterol O-Acyltransferase, Produced by Volutella citrinella BF-0440” (Molecules, 2020)
